Here are results for one compound from ChEMBL document CHEMBL3871268, “Chalcogen containing heterocyclic scaffolds: New hybrids with antitumoral activity” (Eur J Med Chem, 2016).

Test [1] can be described thus: Cell cycle arrest in human MCF7 cells assessed as sub-diploid cells at 100 nM measured after 48 hrs by propidium iodide staining-based flow cytometry (reference value: 1.9%). It is filed as functional. On the technique in general: In flow cytometry, cells or beads pass a laser one at a time.
Test [2] can be described thus: Cell cycle arrest in human MCF7 cells assessed as M1 quadrant cells at 100 nM measured after 48 hrs by propidium iodide staining-based flow cytometry (reference value: 98.1%). In kind it is functional.

Consider `COC[C@H]1OC(=O)c2coc3c2[C@@]1(C)C1=C(C3=O)[C@@H]2CCC(=O)[C@@]2(C)C[C@H]1OC(C)=O`, for which the values for the Activity in test [1] and in test [2] were 6.2% and 93.8%, respectively.
